Series [1] is described as follows: DPPH radical scavenging activity (Blois method). In kind it is biochemical. The conditions noted are these: reacted 10 min, absorbance at 517 nm. Here is the method:
(§1) The antioxidative activity of the novel compound obtained through the extraction and purification process is evaluated by measuring its radical scavenging activity against 1,1-diphenyl-2-picrylhydrazyl (DPPH), which has free radicals attached thereto, according to the Blois method. A thermal stability of the compound of interest can be evaluated by measuring its antioxidative activity at plural temperature points.
(§2) Dicaval A and Dicaval B obtained in Example 3 were measured for antioxidative activity according to the Blois method. For this, an examination was made of the radical scavenging activity of the two compounds against 1,1-diphenyl-2-picrylhydrazyl (DPPH) to which free radicals were attached. First, 20 mg of DPPH was dissolved in 150 ml of ethanol to prepare a DPPH solution. To 600 μl of the DPPH solution was added with 250 μl of dimethylsulfoxide (DMSO), diluted with an appropriate amount of ethanol and shaken for 10 seconds, after which this control was adjusted, in absorbance at 517 nm, from 0.94 to 0.97. To 1 ml of the DPPH solution which was adjusted from 0.94 to 0.97 likewise, each of the samples (μg to mg) was added and then, reacted for 10 min, followed by measuring the absorbance of the solution. The antioxidative activity of each of the samples was determined by the DPPH radical scavenging activity which was represented by a reduced absorbance compared with that of the control.
The antioxidative activity was compared between the conventional antioxidants and the compounds of the invention and the results are given in Table 1, below.
Background: DPPH is a stable violet radical that fades when it is reduced.

Series [2] is described as follows: Thermal stability: antioxidative activity after heating for 1 hour. It is filed as physicochemical. Here is the method: as §1, §2
50 μg of each of Dicaval A and Dicaval B obtained in Example 3 was heated at 40° C., 60° C., 80° C., and 100° C. for 1 hour to measure antioxidative activity.

Where [3] appears, read: 50 μg heated at 40° C. for 1 hour.
Where [4] appears, read: 50 μg heated at 60° C. for 1 hour.
[5] abbreviates: 50 μg heated at 80° C. for 1 hour.
[6] abbreviates: 50 μg heated at 100° C. for 1 hour.

Structures are written as SMILES.

For the compound `O=C1O[C@H]([C@@H](O)CO)C(O)=C1O` [Ascorbic acid, reference compound], the “antioxidative activity (DPPH radical scavenging activity)” value (“antioxidative activity” below) in series [1] (sample amount 10 μg), in series [1] (sample amount 20 μg) and in series [1] (sample amount 100 μg) was 100% each time.
With `Oc1cc(O)c(Oc2c(O)cc(Oc3cc4oc5c(O)c(Oc6cc(O)c(Oc7c(O)cc(O)cc7O)c(O)c6)c(O)cc5c4cc3O)cc2O)c(O)c1` [Dicaval A], the “antioxidative activity” value in series [1] (sample amount 10 μg), in series [1] (sample amount 20 μg) and in series [1] (sample amount 100 μg) was 100% throughout. Besides, the “Antioxidativity (Absorb. change)” value stood at 0.87 in series [2] (setting [3]), 0.89 in series [2] (setting [4]), 0.88 in series [2] (setting [5]) and 0.90 in series [2] (setting [6]). The “Thermal stability (Notes)” value in series [2] (setting [3]), in series [2] (setting [4]), in series [2] (setting [5]) and in series [2] (setting [6]) was “Stable” in each case.
For the compound `Oc1cc(O)c(Oc2c(O)cc(Oc3c(O)cc4c(oc5c(O)c(Oc6cc(O)c(Oc7c(O)cc(O)cc7O)c(O)c6)c(O)cc54)c3O)cc2O)c(O)c1` [Dicaval B], the “antioxidative activity” value in series [1] (sample amount 10 μg), in series [1] (sample amount 20 μg) and in series [1] (sample amount 100 μg) was 100% each time. Moreover, the “Antioxidativity (Absorb. change)” value in series [2] (setting [3]) is recorded as 0.88; in series [2] (setting [4]), 0.88; in series [2] (setting [5]) it was 0.87; in series [2] (setting [6]) it was 0.89. Also, the “Thermal stability (Notes)” value in series [2] (setting [3]), in series [2] (setting [4]), in series [2] (setting [5]) and in series [2] (setting [6]) was “Stable” throughout.

(Values after US6774145B1, “Material separated from Ecklonia cava, method for extracting and purifying the same, and use thereof as antioxidants” (Ventree Co., Ltd, priority 2000, dated 2004).)
